Test results as given in paper PMC5570900, “Exploiting a novel conformational switch to control innate immunity mediated by complement protein C3a” (Nature Communications, 2017).

Target: T1, C3aR (Rattus norvegicus, UniProt O55197)
T1 construct: characterize for the first time a C3aR-induced innate immune response in vivo in rats; from tissue; host or cells: live male Wistar rats, hind paw
T1 sequence (O55197 1-473): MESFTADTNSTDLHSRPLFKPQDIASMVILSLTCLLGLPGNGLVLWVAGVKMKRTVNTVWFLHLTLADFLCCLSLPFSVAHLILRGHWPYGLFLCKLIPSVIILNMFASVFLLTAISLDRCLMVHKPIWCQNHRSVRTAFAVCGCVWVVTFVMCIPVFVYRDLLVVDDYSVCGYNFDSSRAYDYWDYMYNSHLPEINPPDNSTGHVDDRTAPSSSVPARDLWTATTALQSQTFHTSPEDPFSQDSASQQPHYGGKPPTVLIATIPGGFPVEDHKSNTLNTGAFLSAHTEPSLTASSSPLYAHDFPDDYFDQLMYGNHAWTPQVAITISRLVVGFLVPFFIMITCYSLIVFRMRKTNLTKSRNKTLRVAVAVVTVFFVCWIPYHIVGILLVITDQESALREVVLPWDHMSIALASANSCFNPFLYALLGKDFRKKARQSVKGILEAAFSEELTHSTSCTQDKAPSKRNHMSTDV
Experiment: Agonist-induced acute rat paw edema and immune responses
Type: in vivo
Protocol: Male Wistar rats (8–9 weeks) were injected with BR103 (3, 350 μg in 100 μL isotonic saline) into the plantar surface of both hind paw pads using a 30G needle. The inhibitor cromolyn (20 mg/kg in 5% DMSO) was injected subcutaneously 30 min before the agonist. The antagonist BR111 (6, 5–20 mg/kg in olive oil) was administered orally as a single dose 2 h before the agonist. Paw thickness and width were measured using digital calipers (WPI) at 0, 0.5, 2, 6 and 24 h after agonist BR103 administration. Hind paw size is expressed as % change in area from baseline after 0.5 h and then normalized against maximum swelling induced by agonist alone. Researchers were not blinded to treatments given.
Rat paw tissue was collected and fixed in 4% paraformaldehyde (pH 7.4) for 2 h in the cold room (4 °C). The rat paw tissue was then transferred into falcon tubes containing 30% sucrose solution in PBS and left overnight in the cold room. The next day, rat paw tissue was embedded with the Optimal Cutting Temperature compound (OCT, Sakura Finetek, USA) and stored in the −80 °C freezer before being used for making cryo-sections for histological analysis. Frozen sections of 5 microns were prepared using a cryostat-microtome (Leica Biosystems, Germany) and stained using standard protocols on the same day. In normal histological staining, such as with alcian blue and safranin O and hematoxylin and eosin (H&E), samples were briefly washed with distilled water before staining. In alcian blue and safranin O, samples were stained with 0.1% alcian blue (Sigma-Aldrich, USA) and 0.5% safranin O (Sigma-Aldrich, USA) before being mounted in mounting medium. In H&E, samples were stained with hematoxylin (Sigma-Aldrich, USA) and 0.1% eosin (Sigma-Aldrich, USA) before being mounted in mounting medium. In immunohistochemistry, samples were briefly rinsed with PBS to remove OCT and incubated with blocking medium (PBS, 0.1% triton X-100, 10% horse serum) for 1 h at room temperature. Samples were incubated with primary antibody medium (PBS, 4% horse serum, 1:200 histamine or 1:200 of tryptase or 1:150 ED1 or 1:200 ED2 antibodies) overnight at 4 °C. The next day, samples were washed with PBS and were incubated with the secondary antibody medium (PBS, 4% horse serum, detection antibody 1:1000) for 1 h at room temperature. The samples were briefly rinsed, dried and counterstained with DAPI (Invitrogen, Australia). Primary antibodies for histamine (Sigma-Aldrich, USA, H2403, monoclonal rabbit anti-rat IgG, 1: 200), tryptase (Abcam, Australia, ab2378, monoclonal mouse anti-rat IgG, 1:200), ED1 (Serotec, UK, MCA341R, monoclonal mouse anti-rat, 1:150), ED2 (Serotec, UK, MCA3424R, monoclonal mouse anti-rat, 1:200) were purchased from commercial sources. Secondary detection antibody was purchased from (Invitrogen, Australia). ED1 & ED2 positive cells were quantified using FIJI/ImageJ 1.42q software, U.S. National Institutes of Health, Bethesda, MD, USA[44]. All microscope images were obtained using an Olympus BX-51 upright microscope with Olympus DP-71 12Mp colour camera, utilizing DP Capture and DP Manager software packages (Olympus, Tokyo, Japan). Researchers who performed histological analysis and scoring were blinded to the sample identity.
Rat paw tissues were collected and immediately frozen with liquid nitrogen. The frozen rat paw tissue samples were weighed and crushed into smaller pieces with a mortar and pestle in liquid nitrogen. The crushed tissues were added to MPO buffer (50 mM potassium phosphate buffer, pH 6.0) to make up a concentration of 200 mg/mL and homogenized using Zirconium oxide beads (Next Advance, USA) and the Bullet Blender® homogeniser (Next Advance, USA). The homogenized tissues were then diluted to 100 mg/mL with the MPO buffer containing 1% hexadecyl trimethylamonium bromide (Sigma-Aldrich, USA) and underwent three cycles of freeze, thaw, and sonication. […]

[1] = 350 µg per paw i.pl., 0.5 h, vs vehicle
[2] = male Wistar rats, 350 µg per paw, i.pl.

Cc1[nH]c(C(c2ccccc2)c2ccccc2)nc1C(=O)N[C@@H](CCCNC(=N)N)C(=O)O [Compound 3]
Activated mast cells in paw tissue [1]: increased number of activated mast cells | Histamine secretion in paw tissue [1]: increased histamine secretion | Infiltration of ED1+ macrophages [1]: temporal increase in infiltration of inflammatory ED1^+ macrophages | Tryptase-positive cells in paw tissue [1]: decreased tryptase-positive cells | Resident ED2+ macrophage cell numbers (350 µg per paw i.pl., vs vehicle): without significantly affecting resident ED2^+ macrophage cell numbers | Proinflammatory gene expression (Il1β, Il6, Tnf, Ccl3, Mcp1) in paw (350 µg/paw i.pl., 0.5, 6, 24 h, vs vehicle): induced the upregulation of many proinflammatory genes | Myeloperoxidase (MPO) activity in paw (350 µg/paw i.pl., 30 min, 6 h, 24 h, vs sham): increased myeloperoxidase (MPO) activity at 6 h, but not at 30 min or 24 h | Paw edema induction [2]: induced an acute inflammatory edema | Time of peak paw swelling [2]: 0.5 h
